According to patent publication US5981219A, “DNA molecules which code for a plastid 2-oxoglutarate/malate translocator” (Hoechst Schering Agrevo GmbH, priority 1919, dated 1999):

Columns and labels:
[1] = system: purified 2-oxoglutarate/malate translocator protein; conditions: cited from earlier work; for transport activity, percentage of activity measured with malate-preloaded liposomes: liposomes preloaded with the indicated dicarboxylate
[2] = molecular target: T1, 2-oxoglutarate/malate translocator, envelope membrane of spinach chloroplasts (Spinacia oleracea, UniProt Q41364); assay: Reconstituted malate transport activity, envelope membrane proteins of spinach chloroplasts in liposomes; type: biochemical; conditions: for transport activity, percentage of activity measured with malate-preloaded liposomes: envelope membrane of spinach chloroplasts, liposomes preloaded with the indicated dicarboxylate, standard deviation in brackets
T1 construct: it is cleaved during the import process by a specific protease; the mature protein (m) is formed; from tissue; host or cells: spinach chloroplast envelope membranes
T1 sequence (Q41364 94-569): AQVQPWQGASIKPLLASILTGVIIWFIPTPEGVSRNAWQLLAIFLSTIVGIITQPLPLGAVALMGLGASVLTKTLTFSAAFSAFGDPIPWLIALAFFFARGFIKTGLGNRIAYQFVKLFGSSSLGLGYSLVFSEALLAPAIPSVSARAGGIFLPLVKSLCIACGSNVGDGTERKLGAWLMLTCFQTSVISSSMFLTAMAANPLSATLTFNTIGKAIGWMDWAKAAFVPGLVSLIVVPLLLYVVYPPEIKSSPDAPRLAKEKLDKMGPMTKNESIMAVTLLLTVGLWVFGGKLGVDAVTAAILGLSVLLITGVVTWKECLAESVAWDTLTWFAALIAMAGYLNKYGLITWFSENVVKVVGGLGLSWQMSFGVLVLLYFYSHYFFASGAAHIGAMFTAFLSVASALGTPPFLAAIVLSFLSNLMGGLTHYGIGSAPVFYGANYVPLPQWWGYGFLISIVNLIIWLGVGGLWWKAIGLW
Protocol: (§1) Yeast cells transformed with pEVP11-211 plasmid (see FIG. 2A, SP-DC3 cells) were grown in minimum essential medium up to an optical density of 1.0 at 600 nm and harvested by centrifugation at 3,000×g for 5 minutes. The cells were disrupted by vigorously shaking the mixture with 1/2 vol. (based on the cells) glass beads and glass beads and cell debris were separated by centrifugation (600 g for 1 minute). The supernatant was adjusted to a concentration of 0.5% (weight/volume) Triton X-100, an equal volume of liposomes was added to the mixture and the resulting proteoliposomes were immediately frozen in liquid nitrogen. The liposomes were previously prepared by sonification of soy bean phospholipid (20 mg/ml for 10 minutes at 4° C. in the presence of 200 mM tricine NaOH (pH 7.6), 40 mM malate and 60 mM potassium gluconate. After thawing of the proteoliposomes and sonification of the suspension with 10 pulses a 1 s the proteoliposomes were separated from the surrounding medium by size exclusion chromatography on Sephadex G-25 which had been equilibrated with 10 mM tricine NaOH (pH 7.6), 100 mM sodium gluconate and 50 mM potassium gluconate. The eluted proteoliposomes were used for measuring malate transport activity. The measurement was carried out according to the "inhibitor stop" method described by Menzlaff and Flugge (1993, Biochim. Biophys. Acta 1147:13-18).
Whole yeast protein, envelope membrane proteins and the purified
2oxyoglutarate/malate translocator were reconstituted in liposomes which
were preloaded with the indicated dicarboxylates. The transport activitie
were measured as described by Menzlaff and Flugge (Biochim. Biophys. Acta
1993, 1147: 13-18) and are indicated in the percentage of activity
measured with malatepreloaded liposomes. The standard deviations are
indicated in brackets. The 100% transport activities (nMol/mg # protein
per minute) were 0.8 (recombinant protein), 21.4 (envelope membranes) and
263 (purified translocator protein).

[3] = molecular target: T2, recombinant 2-oxoglutarate/malate translocator (transformed SP-DC3 cells) (Spinacia oleracea, UniProt Q41364); assay: Reconstituted malate transport activity (inhibitor stop method), recombinant protein from transformed SP-DC3 yeast cells in liposomes; type: biochemical, spinach (expressed in Schizosaccharomyces pombe); conditions: for transport activity, percentage of activity measured with malate-preloaded liposomes: recombinant protein (transformed SP-DC3 cells), liposomes preloaded with the indicated dicarboxylate, standard deviation in brackets
T2 construct: made in house; host or cells: Schizosaccharomyces pombe (SP-DC3 cells, plasmid pEVP11-211)
T2 sequence (Q41364 94-569): T1 sequence (Q41364 94-569)
Protocol: as §1
The malate transport activity in the pEVP11-211 transformants was compared with the malate transport activity of transformants that were merely transformed with the vector pEVP11 without the 211 insert.

[4] = system: protein import into intact spinach chloroplasts; assay: Import of in vitro translated translocator precursor protein into intact spinach chloroplasts (SDS-PAGE, fluorography); conditions: light conditions, 10 μM CCCP (lane 8, FIG. 3)
Protocol: FIG. 3: Targeting of the 2-oxoglutarate/malate translocator precursor protein to the chloroplasts and energy-dependent insertion of the mature protein in the inner envelope membrane
SDS polyacrylamide gel electrophoresis was carried out as described in Example 6:
Lane 8: plus decoupling agent (10 μM CCCP) Lane 9: plus 2 mM ATP; protease-pretreated chloro-plasts (30 μg/ml)
The in vitro transcription of plasmid pBSC-211 which was linearized with SmaI was carried out using T3 RNA polymerase according to the instructions of the manufacturer (Pharmacia). Subsequent in vitro translation was carried out in the reticulocyte lysate (Boehringer-Mannheim). The post-ribosomal supernatant was used for protein transports in intact spinach chloroplasts. The experiment was carried out in the dark as well as in the light; the preparation contained import buffer (Flugge et al., 1989, EMBO J. 8:39-46), intact spinach chloroplasts (corresponding to 200 […]) and various additives indicated in the legend to FIG. 3 (entire volume: […]). After 15 minutes at 25° C. the chloroplasts were washed and the envelope membranes […] (Flugge et al., 1989, EMBO J. 8:39-46) […]. They were analyzed in a SDS polyacrylamide gel electrophoresis (Laemmli, 1970, Nature 227:680-685) and subsequent fluorography (Bonner and Laskey, 1974, Eur. J. Biochem. 46:84-88) (FIG. 3). […]

SMILES	transport activity, percentage of activity measured with malate-preloaded liposomes [1]	100% transport activity ([1]; malate-preloaded liposomes)	transport activity, percentage of activity measured with malate-preloaded liposomes [2]	100% transport activity ([2]; malate-preloaded liposomes, envelope membranes)	100% transport activity ([3]; malate-preloaded liposomes, recombinant protein)	transport activity, percentage of activity measured with malate-preloaded liposomes [3]	protein import into chloroplasts [4]
O=C(O)CC(O)C(=O)O (stereo not drawn) [Malate]	100%	263 nMol/mg protein per minute	100%	21.4 nMol/mg protein per minute	0.8 nMol/mg protein per minute	100%	–
O=C(O)CCC(=O)C(=O)O [2-Oxoglutarate]	–	–	46 (±2) %	–	–	44 (±14) %	–
N[C@@H](CC(=O)O)C(=O)O [Aspartate]	–	–	12 (±1) %	–	–	13 (±4) %	–
N[C@@H](CCC(=O)O)C(=O)O [Glutamate]	–	–	6 (±1) %	–	–	3 (±1) %	–
O=C(O)/C=C/C(=O)O [Fumarate]	65%	–	72 (±2) %	–	–	119 (±24) %	–
O=C(O)CCCC(=O)O [Glutarate]	–	–	52 (±1) %	–	–	63 (±14) %	–
N#CC(C#N)=NNc1cccc(Cl)c1 [CCCP]	–	–	–	–	–	–	the protein import is blocked
O=C(O)CCC(=O)O [Succinate]	63%	–	74 (±2) %	–	–	83 (±12) %	–
